Experiments:
[1] = tested on: Beet Armyworm (Spodoptera exigua, LAPHEG); test: Bioassays on Beet Armyworm (BAW), 128-well diet tray assay; format: in vivo; conditions: Beet Armyworm, Table ABC Biological Results, read-out: BAW (rating)
Protocol: (§1) Certain molecules disclosed in this document were tested against BAW and CL using procedures described in the following examples. In the reporting of the results, the “BAW & CL Rating Table” was used (See Table Section).
Bioassays on BAW were conducted using a 128-well diet tray assay. One to five second instar BAW larvae were placed in each well (3 mL) of the diet tray that had been previously filled with 1 mL of artificial diet to which 50 μg/cm^2 of the test molecule (dissolved in 50 μL of 90:10 acetone-water mixture) had been applied (to each of eight wells) and then allowed to dry. Trays were covered with a clear self-adhesive cover, vented to allow gas exchange, and held at 25° C., 14:10 light-dark for five to seven days. Percent mortality was recorded for the larvae in each well; activity in the eight wells was then averaged. The results are indicated in the table entitled “Table ABC: Biological Results” (See Table Section).

[2] = tested on: Cabbage Looper (Trichoplusia ni, TRIPNI); test: Bioassays on Cabbage Looper (CL), 128-well diet tray assay; format: in vivo; conditions: Cabbage Looper, Table ABC Biological Results, read-out: CL (rating)
Protocol: as §1
Bioassays on CL were conducted using a 128-well diet tray assay. One to five second instar CL larvae were placed in each well (3 mL) of the diet tray that had been previously filled with 1 mL of artificial diet to which 50 μg/cm^2 of the test molecule (dissolved in 50 μL of 90:10 acetone-water mixture) had been applied (to each of eight wells) and then allowed to dry. Trays were covered with a clear self-adhesive cover, vented to allow gas exchange, and held at 25° C., 14:10 light-dark for five to seven days. Percent mortality was recorded for the larvae in each well; activity in the eight wells was then averaged. The results are indicated in the table entitled “Table ABC: Biological Results” (See Table Section).

SMILES | pest or weed control at 50 µg/cm2 [1] [%] | pest or weed control at 50 µg/cm2 [2] [%]
O=C(CSC(F)(F)F)Nc1c(F)ccc(NC(=O)c2cc(NC(=O)[C@H]3[C@H](c4cc(C(F)(F)F)cc(C(F)(F)F)c4)C3(Cl)Cl)ccc2Cl)c1F (relative stereo) [F48, trans-5-(3-(3,5-Bis(trifluoromethyl)phenyl)-2,2-dichlorocyclopropane-1-carboxamido)-2-chloro-N-(2,4-difluoro-3-(2-((trifluoromethyl)thio)acetamido)phenyl)benzamide] | 50 to 100 | 50 to 100
CSC(F)(F)C(=O)Nc1c(F)ccc(NC(=O)c2cc(NC(=O)[C@H]3[C@H](c4ccc(F)c(C(F)(F)F)c4)C3(Cl)Cl)ccc2Cl)c1F [F1, 2-Chloro-5-((1R,3R)-2,2-dichloro-3-(4-fluoro-3-(trifluoromethyl)phenyl)cyclopropane-1-carboxamido)-N-(3-(2,2-difluoro-2-(methylthio)acetamido)-2,4-difluorophenyl)benzamide] | 50 to 100 | 50 to 100
O=C(CSc1ccncc1)Nc1c(F)ccc(NC(=O)c2cc(NC(=O)[C@H]3[C@H](c4ccc(F)c(C(F)(F)F)c4)C3(Cl)Cl)ccc2Cl)c1F [F2, 2-Chloro-5-((1R,3R)-2,2-dichloro-3-(4-fluoro-3-(trifluoromethyl)phenyl)cyclopropane-1-carboxamido)-N-(2,4-difluoro-3-(2-(pyridin-4-ylthio)acetamido)phenyl)benzamide] | 50 to 100 | 50 to 100
O=C(CSc1ccc(F)cc1)Nc1c(F)ccc(NC(=O)c2cc(NC(=O)[C@H]3[C@H](c4ccc(F)c(C(F)(F)F)c4)C3(Cl)Cl)ccc2Cl)c1F [F4, 2-Chloro-5-((1R,3R)-2,2-dichloro-3-(4-fluoro-3-(trifluoromethyl)phenyl)cyclopropane-1-carboxamido)-N-(2,4-difluoro-3-(2-((4-fluorophenyl)thio)acetamido)phenyl)benzamide] | 50 to 100 | 50 to 100
O=C(CSCCC(F)(F)F)Nc1c(F)ccc(NC(=O)c2cc(NC(=O)[C@H]3[C@H](c4ccc(F)c(C(F)(F)F)c4)C3(Cl)Cl)ccc2Cl)c1F [F5, 2-Chloro-5-((1R,3R)-2,2-dichloro-3-(4-fluoro-3-(trifluoromethyl)phenyl)cyclopropane-1-carboxamido)-N-(2,4-difluoro-3-(2-((3,3,3-trifluoropropyl)thio)acetamido)phenyl)benzamide] | 50 to 100 | 50 to 100
O=C(CSCC(F)(F)F)Nc1c(F)ccc(NC(=O)c2cc(NC(=O)[C@H]3[C@H](c4cc(Cl)c(Cl)c(Cl)c4)C3(Cl)Cl)ccc2Cl)c1F [F6, 2-Chloro-5-((1R,3R)-2,2-dichloro-3-(3,4,5-trichlorophenyl)cyclopropane-1-carboxamido)-N-(2,4-difluoro-3-(2-((2,2,2-trifluoroethyl)thio)acetamido)phenyl)benzamide] | 50 to 100 | 50 to 100
CC(SC(F)(F)F)C(=O)Nc1c(F)ccc(NC(=O)c2cc(NC(=O)[C@H]3[C@H](c4cc(Cl)c(Cl)c(Cl)c4)C3(Cl)Cl)ccc2Cl)c1F (stereo partly drawn) [F7, 2-Chloro-5-((1R,3R)-2,2-dichloro-3-(3,4,5-trichlorophenyl)cyclopropane-1-carboxamido)-N-(2,4-difluoro-3-(2-((trifluoromethyl)thio)propanamido)phenyl)benzamide] | 50 to 100 | 50 to 100
O=C(CSC(F)(F)F)Nc1c(F)ccc(NC(=O)c2cc(NC(=O)[C@H]3[C@H](c4cc(Cl)c(Cl)c(Cl)c4)C3(Cl)Cl)ccc2Cl)c1F [F8, 2-Chloro-5-((1R,3R)-2,2-dichloro-3-(3,4,5-trichlorophenyl)cyclopropane-1-carboxamido)-N-(2,4-difluoro-3-(2-((trifluoromethyl)thio)acetamido)phenyl)benzamide] | 50 to 100 | 50 to 100
O=C(CSCC(F)(F)F)Nc1c(F)ccc(NC(=O)c2cc(NC(=O)[C@H]3[C@H](c4ccc(Cl)c(Cl)c4)C3(Cl)Cl)ccc2Cl)c1F [F9, 2-Chloro-5-((1R,3R)-2,2-dichloro-3-(3,4-dichlorophenyl)cyclopropane-1-carboxamido)-N-(2,4-difluoro-3-(2-((2,2,2-trifluoroethyl)thio)acetamido)phenyl)benzamide] | 50 to 100 | 50 to 100
CC(SC(F)(F)F)C(=O)Nc1c(F)ccc(NC(=O)c2cc(NC(=O)[C@H]3[C@H](c4ccc(Cl)c(Cl)c4)C3(Cl)Cl)ccc2Cl)c1F (stereo partly drawn) [F10, 2-Chloro-5-((1R,3R)-2,2-dichloro-3-(3,4-dichlorophenyl)cyclopropane-1-carboxamido)-N-(2,4-difluoro-3-(2-((trifluoromethyl)thio)propanamido)phenyl)benzamide] | 50 to 100 | 50 to 100
O=C(CSC(F)(F)F)Nc1c(F)ccc(NC(=O)c2cc(NC(=O)[C@H]3[C@H](c4ccc(Cl)c(Cl)c4)C3(Cl)Cl)ccc2Cl)c1F [F11, 2-Chloro-5-((1R,3R)-2,2-dichloro-3-(3,4-dichlorophenyl)cyclopropane-1-carboxamido)-N-(2,4-difluoro-3-(2-((trifluoromethyl)thio)acetamido)phenyl)benzamide] | 50 to 100 | 50 to 100
O=C(CSCC(F)(F)F)Nc1c(F)ccc(NC(=O)c2cc(NC(=O)[C@H]3[C@H](c4ccc(F)c(Cl)c4)C3(Cl)Cl)ccc2Cl)c1F [F12, 2-Chloro-5-((1R,3R)-2,2-dichloro-3-(3-chloro-4-fluorophenyl)cyclopropane-1-carboxamido)-N-(2,4-difluoro-3-(2-((2,2,2-trifluoroethyl)thio)acetamido)phenyl)benzamide] | 50 to 100 | 50 to 100
CC(SC(F)(F)F)C(=O)Nc1c(F)ccc(NC(=O)c2cc(NC(=O)[C@H]3[C@H](c4ccc(F)c(Cl)c4)C3(Cl)Cl)ccc2Cl)c1F (stereo partly drawn) [F13, 2-Chloro-5-((1R,3R)-2,2-dichloro-3-(3-chloro-4-fluorophenyl)cyclopropane-1-carboxamido)-N-(2,4-difluoro-3-(2-((trifluoromethyl)thio)propanamido)phenyl)benzamide] | 50 to 100 | 50 to 100
O=C(CSC(F)(F)F)Nc1c(F)ccc(NC(=O)c2cc(NC(=O)[C@H]3[C@H](c4ccc(F)c(Cl)c4)C3(Cl)Cl)ccc2Cl)c1F [F14, 2-Chloro-5-((1R,3R)-2,2-dichloro-3-(3-chloro-4-fluorophenyl)cyclopropane-1-carboxamido)-N-(2,4-difluoro-3-(2-((trifluoromethyl)thio)acetamido)phenyl)benzamide] | 50 to 100 | 50 to 100
O=C(CCSc1ccccc1)Nc1c(F)ccc(NC(=O)c2cc(NC(=O)[C@H]3[C@H](c4ccc(F)c(C(F)(F)F)c4)C3(Cl)Cl)ccc2Cl)c1F [F20, 2-Chloro-5-((1R,3R)-2,2-dichloro-3-(4-fluoro-3-(trifluoromethyl)phenyl)cyclopropane-1-carboxamido)-N-(2,4-difluoro-3-(3-(phenylthio)propanamido)phenyl)benzamide] | 50 to 100 | 50 to 100
